System: Lgr5
Assay: Western blot for Lgr5 protein
Assay type: in vivo, NIH Swiss mice
Conditions: individual amino acid by gastric gavage (300 ul OD) for 6 days; 0 Gy and 5 Gy irradiated mice
Protocol: For FIGS. 9-13, the data is from Male NIH Swiss mice (8 weeks) treated with individual amino acids (FIG. 9 (valine); FIG. 10 (tryptophan); FIG. 11 (serine); FIG. 12 (tyrosine); FIG. 13 (threonine)), as by gastric savage (300 ul OD) for a period of 6 days. Animals were sacrificed on day 6 by CO2 euthanasia and tissues collected for resolving the protein by western blot analysis. Lgr5 (100 KD) was used as the marker for crypt stem cell proliferation. These experiments are repeated at least 4 times (data shown) from 4 different mice.
Control groups were given normal saline. […] Mice fasted for 8 hours prior to gavage.
Signals were detected with Odyssey CLX from LI-COR.

## CC(C)[C@H](N)C(=O)O [valine]
  Lgr5 protein levels: increases

From US11576884B2, “Amino acid compositions and uses thereof” (University of Florida Research Foundation, Incorporated, priority 2016, dated 2023)
